Laboratory results published in patent US20190350964A1, “ANTI-CANCER COMPOUNDS AND USES THEREOF” (NATIONAL UNIVERSITY OF SINGAPORE, priority 2016, published 2019).

Experiments:
[1] = molecular target: T1, Pyridoxal kinase (Homo sapiens, UniProt O00764); assay: MS-CETSA in normal BJ cell lysates; assay type: binding; details: lysate, 100 μM compound
T1 construct: After collecting data covering >8,000 proteins in lysates of normal BJ cells; endogenous in cells; host or cells: normal BJ cells, lysate
Method: (§1) Target identification was performed by cellular thermal shift assay (CETSA) coupled with quantitative mass spectrometry. In brief, normal BJ cells were lysed by combination of freeze/thaw and mechanical shearing with needle in buffer [50 mM HEPES (pH 7.5), 5 mM β-glycerophosphate, 0.1 mM Sodium Vanadate, 10 mM MgCl2, 1 mM TCEP and 1× Protease inhibitor Cocktail]. The cell debris was removed by centrifugation at 20,000 g for 20 min at 4° C. […] Each lysate was divided into 10 aliquots for heat treatment at the respective temperatures for 3 min in a 96-well thermocycler, followed by 3 min at 4° C. The lysate was centrifuged at 20,000 g for 20 min at 4° C. and the supernatant was transferred into microtubes for MS sample preparation.
(§2) After lysis, at least 100 μg of the protein (measured with a BCA assay) was subjected to reduction, denaturation and alkylation. Samples were subsequently incubated with sequencing grade LysC (Wako) and trypsin (Promega) for digestion overnight at 37° C. The digested samples were dried using a centrifugal vacuum evaporator, solubilized in 100 mM TEAB. […]
(§3) Proteins for which a low temperature plateau was not present were deleted using a cut off >0.85 for the average reading of the first three temperature points (in our experience proteins melting already at −37° C. are more prone to give false positives in a shift analysis).

[2] = molecular target: T2, AP-3 complex subunit sigma-1 (Homo sapiens, UniProt Q92572); assay: MS-CETSA in normal BJ cell lysates; assay type: binding; details: lysate, 100 μM compound
T2 construct: After collecting data covering >8,000 proteins in lysates of normal BJ cells; endogenous in cells; host or cells: normal BJ cells, lysate
Method: as §1, §2, §3

[3] = test system: normal BJ cells; assay: γ-H2AX immunofluorescence (DNA damage); assay type: cell-based, human; details: 48 h; a131 2.5 and 5 μM, etoposide 100 μM
Method: For immunofluorescence analysis, cells grown on coverglass-bottom chamber slides (Lab-Tek) were fixed with 4% PFA (paraformaldehyde) for 15 min at 25° C. The fixed cells were permeabilized with 0.5% Triton X-100 and exposed to TBS containing 0.1% Triton X-100 and 2% BSA (AbDil). The following primary antibodies were diluted in PBS containing 1% BSA and 0.1% Triton X-100: anti-γ-tubulin (Sigma-Aldrich, #T6557; 1:1000) and anti-β-tubulin (Abcam, #ab18207; 1:2000). […] Cells were counterstained with DAPI (Thermo Scientific). […] For time-lapse live-cell analysis, a Stage Top Incubator with Digital CO2 mixer (Tokai) was used, and images were acquired at 37° C.

[4] = test system: NCC24; assay: MTT cytotoxicity test (GI50); assay type: cell-based; details: Homo sapiens; NCC24, cancer, gastric; MTT 72 h
[5] = test system: HCT-15 human colon adenocarcinoma cells; assay: HCT-15 tumor xenograft in nude mice; assay type: in vivo, mouse
From the text: BALB/c athymic female nude mice (nu/nu, 5-7 weeks) (InVivos) were kept under specific pathogen-free (SPF) conditions. The care and use of mice was approved by the Duke-NUS IACUC in accordance with protocol 2015/SHS/1030. HCT15 human colon cancer cells (5×10^6) or MDA-MB-231 human breast cancer cells (4×10^6 with Matrigel) were subcutaneously injected into the flanks of mice. When the mean tumor volume reached 100-300 mm^3 (Day 1), the mice were randomly divided into experimental groups of 6 mice by an algorithm that moves animals around to achieve the best case distribution to assure that each treatment group has similar mean tumor burden and standard deviation. No statistical method was used to predetermine sample size. […] Paclitaxel (Cayman Chemical) was dissolved in ethanol:Tween 80=1:3 (v/v) solution followed by the addition of a 5% glucose solution (final ratio, ethanol:Tween 80:5% glucose=5:15:80) and injected via the tail vain (IV). Tumor dimensions were measured using calipers, and tumor volume (mm^3) was calculated using the formula width^2×length/2 in a blinded fashion. On Day 12 (HCT15) or Day 16 (MDA-MB-231), mice were sacrificed. Tumors were collected, fixed overnight in 4% paraformaldehyde (PFA) and stored in 70% ethanol. For immunostaining, antigens were retrieved from formaldehyde-fixed, paraffin-embedded tumor tissue sections for 30 min by boiling in sodium citrate buffer (pH 6.0) using a microwave histoprocessor (Milestone). Endogenous peroxidase activity in tissue sections was depleted by treatment with 3% hydrogen peroxide (H2O2 in 1×TBS) for 20 min at room temperature. Tumor tissue sections were incubated overnight with anti-β-tubulin (Abcam; 1:100 in 3% BSA/TBS-Tween 20) at 4° C. followed by incubation with goat anti-rabbit FITC-conjugated secondary antibody (Invitrogen; 1:200 in 3% BSA/TBS) for 1 h at 25° C. After dehydration treatment, coverslips were mounted using DAPI mounting medium (Vector). Images were acquired in 3D-SIM mode using a super resolution microscope (Nikon), and the number of cells with either 2 or mitotic-spindles was quantified (n>50 cells per section, 6-7 sections per treatment). For detection of apoptosis using the TUNEL method, the ApopTag Plus Peroxidase In Situ Apoptosis Detection Kit (Millipore) was used for formaldehyde-fixed, paraffin-embedded tumor tissue sections treated with b5 (80 mg/kg, IP) or control vehicle for 12 days. Slide scans were acquired using a MetaSystems Metafer built on a Zeiss Axiolmager Z.2 upright microscope. The system is equipped with a CoolCubel camera and a Zeiss Plan-Neofluar 20×/0.5 Ph2 objective lens. Image acquisition was controlled with Metafer4 software, and stitching was performed with the VSlide software and further processed using the open source software FIJI. A custom macro was used to batch process the images in the following sequence: Gaussian filter, color deconvolution of hematoxylin and DAB, thresholding the hematoxylin image, watershed to separate touching nuclei, and then count the number of hematoxylin-stained nuclei. For the DAB image, a fixed threshold was used, watershed applied and the number of DAB stained nuclei counted. In all cases, no data or animals were excluded and results are expressed as mean and standard deviation of the mean.

[6] = test system: cancer cell lines; assay: FACS of subG1 (PI) and Annexin V in cancer and normal cell lines; assay type: cell-based, human; details: 2.5 μM and 5 μM, 48 h
Method: Cell death was assessed via Annexin V and/or PI (propidium iodide) staining according to the manufacturer's instructions (eBioscience). Cell growth arrest was assessed by direct measurement of DNA synthesis through incorporation of the nucleoside analog bromodeoxyuridine (BrdU). Briefly, BrdU (30 μM, Sigma-Aldrich) was added for 2 h before harvesting cells. Cells were subsequently stained with Pacific Blue-conjugated BrdU antibody (Invitrogen) for 1 h followed by PI staining. Stained cells were analyzed by MACSQuant (MACS). Three independent experiments were performed in triplicate. The percentage of Annexin V/PI- or BrdU-positive cells was quantified using Flow Jo software (Becton Dickinson). Where indicated, the combined activity of caspase-3/7 was determined using the caspase-Glo 3/7 Assay Kit (Promega) and normalized to the number of viable cells as determined by MTT assay.

[7] = test system: RPE-1/hTert; assay: MTT cytotoxicity test (GI50); assay type: cell-based; details: Homo sapiens, normal, retina, MTT 72 h
[8] = test system: transformed BJ cells; assay: Time-lapse live-cell imaging and immunofluorescence of mitosis; assay type: cell-based, human; details: 2.5 μM
Method: For immunofluorescence analysis, cells grown on coverglass-bottom chamber slides (Lab-Tek) were fixed with 4% PFA (paraformaldehyde) for 15 min at 25° C. The fixed cells were permeabilized with 0.5% Triton X-100 and exposed to TBS containing 0.1% Triton X-100 and 2% BSA (AbDil). The following primary antibodies were diluted in PBS containing 1% BSA and 0.1% Triton X-100: anti-γ-tubulin (Sigma-Aldrich, #T6557; 1:1000) and anti-β-tubulin (Abcam, #ab18207; 1:2000). Isotype-specific secondary antibodies (1:500 dilution) coupled to Alexa Fluor 488, 594, or Cy5 (Molecular Probes) were used. Cells were counterstained with DAPI (Thermo Scientific). Images were acquired at RT with 3D-SIM mode using a Super Resolution Microscope (Nikon) equipped with an iXon EM+885 EMCCD camera (Andor) mounted on a Nikon Eclipse Ti-E inverted microscope with a CFI Apo TIRF (100×/1.40 oil) objective and processed with the NIS-Elements AR software. For time-lapse live-cell analysis, a Stage Top Incubator with Digital CO2 mixer (Tokai) was used, and images were acquired at 37° C.

[9] = test system: BJ normal; assay: MTT cytotoxicity test (GI50); assay type: cell-based; details: Homo sapiens, skin, MTT 72 h

T2 sequence (Q92572 whole entry): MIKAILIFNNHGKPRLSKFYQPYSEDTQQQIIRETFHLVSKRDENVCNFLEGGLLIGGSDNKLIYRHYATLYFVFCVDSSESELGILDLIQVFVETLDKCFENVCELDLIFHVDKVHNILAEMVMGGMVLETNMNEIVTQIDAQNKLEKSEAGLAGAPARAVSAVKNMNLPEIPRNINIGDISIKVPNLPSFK
T2 sequence (O14617 whole entry partner): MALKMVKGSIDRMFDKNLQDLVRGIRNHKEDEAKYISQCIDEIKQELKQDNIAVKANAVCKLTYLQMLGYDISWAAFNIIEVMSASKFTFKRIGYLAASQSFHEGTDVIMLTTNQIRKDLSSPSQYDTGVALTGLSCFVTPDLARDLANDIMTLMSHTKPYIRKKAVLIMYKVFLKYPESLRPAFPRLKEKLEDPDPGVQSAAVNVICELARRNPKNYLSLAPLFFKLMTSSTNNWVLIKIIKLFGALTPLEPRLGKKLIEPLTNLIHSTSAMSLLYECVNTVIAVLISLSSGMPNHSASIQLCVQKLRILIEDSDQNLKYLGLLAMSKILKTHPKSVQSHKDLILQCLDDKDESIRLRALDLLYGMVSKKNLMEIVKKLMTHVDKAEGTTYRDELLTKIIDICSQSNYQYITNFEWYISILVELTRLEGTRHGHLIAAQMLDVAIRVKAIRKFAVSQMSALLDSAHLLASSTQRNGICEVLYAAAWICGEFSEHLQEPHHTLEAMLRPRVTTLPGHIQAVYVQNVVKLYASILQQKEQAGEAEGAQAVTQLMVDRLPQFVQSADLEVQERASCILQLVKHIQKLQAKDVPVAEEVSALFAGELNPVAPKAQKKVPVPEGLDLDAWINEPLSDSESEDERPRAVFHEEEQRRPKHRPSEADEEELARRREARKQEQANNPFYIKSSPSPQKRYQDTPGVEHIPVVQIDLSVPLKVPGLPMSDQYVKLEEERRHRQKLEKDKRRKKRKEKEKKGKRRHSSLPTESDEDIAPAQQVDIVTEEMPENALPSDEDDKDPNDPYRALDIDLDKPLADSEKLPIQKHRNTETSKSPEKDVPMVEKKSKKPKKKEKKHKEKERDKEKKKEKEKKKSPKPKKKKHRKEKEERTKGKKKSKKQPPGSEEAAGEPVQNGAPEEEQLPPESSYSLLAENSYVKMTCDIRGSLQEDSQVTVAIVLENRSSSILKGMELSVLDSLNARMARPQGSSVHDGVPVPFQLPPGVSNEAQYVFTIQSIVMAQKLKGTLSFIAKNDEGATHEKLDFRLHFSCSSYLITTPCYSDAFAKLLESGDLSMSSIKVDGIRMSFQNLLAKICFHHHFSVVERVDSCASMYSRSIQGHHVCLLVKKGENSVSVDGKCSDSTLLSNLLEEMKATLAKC
T2 sequence (O00203 whole entry partner): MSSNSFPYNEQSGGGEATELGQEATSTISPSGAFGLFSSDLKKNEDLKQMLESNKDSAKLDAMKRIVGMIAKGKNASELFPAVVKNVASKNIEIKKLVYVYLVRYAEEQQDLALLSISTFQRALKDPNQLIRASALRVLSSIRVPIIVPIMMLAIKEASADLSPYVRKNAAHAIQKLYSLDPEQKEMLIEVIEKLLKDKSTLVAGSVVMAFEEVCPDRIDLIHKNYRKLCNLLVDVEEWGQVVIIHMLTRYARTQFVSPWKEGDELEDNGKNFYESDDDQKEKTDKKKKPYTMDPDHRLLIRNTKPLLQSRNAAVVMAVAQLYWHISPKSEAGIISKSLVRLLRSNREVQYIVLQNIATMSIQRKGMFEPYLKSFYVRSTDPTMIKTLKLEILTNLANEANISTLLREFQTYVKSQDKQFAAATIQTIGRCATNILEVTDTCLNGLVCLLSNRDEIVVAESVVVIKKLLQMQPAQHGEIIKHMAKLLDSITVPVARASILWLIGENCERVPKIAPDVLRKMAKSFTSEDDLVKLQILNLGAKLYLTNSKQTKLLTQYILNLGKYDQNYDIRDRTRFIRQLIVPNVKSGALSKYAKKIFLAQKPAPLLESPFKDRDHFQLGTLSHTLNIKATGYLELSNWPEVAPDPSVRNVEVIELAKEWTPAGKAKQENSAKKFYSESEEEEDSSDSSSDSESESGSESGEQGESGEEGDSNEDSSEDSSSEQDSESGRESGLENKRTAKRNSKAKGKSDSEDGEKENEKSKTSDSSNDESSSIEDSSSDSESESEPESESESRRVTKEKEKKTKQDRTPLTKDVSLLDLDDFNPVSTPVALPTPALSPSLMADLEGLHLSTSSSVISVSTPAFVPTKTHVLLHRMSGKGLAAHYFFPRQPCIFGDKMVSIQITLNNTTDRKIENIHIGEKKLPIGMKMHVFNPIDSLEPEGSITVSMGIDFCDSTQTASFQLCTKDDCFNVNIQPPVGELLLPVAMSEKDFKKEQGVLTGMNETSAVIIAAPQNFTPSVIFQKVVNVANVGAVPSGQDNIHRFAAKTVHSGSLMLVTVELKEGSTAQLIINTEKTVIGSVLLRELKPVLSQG
T2 sequence (Q9Y2T2 whole entry partner): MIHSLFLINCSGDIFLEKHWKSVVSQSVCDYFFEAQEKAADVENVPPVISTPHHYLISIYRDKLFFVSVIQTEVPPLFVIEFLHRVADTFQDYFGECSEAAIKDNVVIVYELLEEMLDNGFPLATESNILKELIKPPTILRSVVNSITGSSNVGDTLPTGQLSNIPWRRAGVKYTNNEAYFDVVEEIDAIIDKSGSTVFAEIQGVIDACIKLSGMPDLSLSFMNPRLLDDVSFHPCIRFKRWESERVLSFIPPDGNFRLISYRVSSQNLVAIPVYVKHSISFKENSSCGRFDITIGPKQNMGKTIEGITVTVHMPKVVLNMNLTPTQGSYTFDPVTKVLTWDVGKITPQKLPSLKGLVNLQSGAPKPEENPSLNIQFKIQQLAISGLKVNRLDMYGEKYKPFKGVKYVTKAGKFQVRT
T1 sequence (O00764 whole entry): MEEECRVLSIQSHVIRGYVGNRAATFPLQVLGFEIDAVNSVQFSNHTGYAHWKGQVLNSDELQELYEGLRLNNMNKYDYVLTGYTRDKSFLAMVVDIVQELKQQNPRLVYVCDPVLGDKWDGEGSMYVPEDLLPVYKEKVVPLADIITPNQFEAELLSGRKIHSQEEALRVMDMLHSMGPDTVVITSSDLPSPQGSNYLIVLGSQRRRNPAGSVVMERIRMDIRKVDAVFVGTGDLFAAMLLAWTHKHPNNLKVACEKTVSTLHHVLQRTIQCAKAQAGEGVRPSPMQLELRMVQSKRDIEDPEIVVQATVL

**Q.** How did the ED score [1] turn out when `N#C/C(=C\c1cccc2cnccc12)c1c[nH]c2ccccc12` [a131, (Z)-2-(1H-indol-3-yl)-3-(5-isoquinolyl)prop-2-enenitrile] was run?
**A.** Its ED score is 0.4486.

**Q.** And the ΔTm at 100 µM ([1]; read-out: mean Delta Tm)?
**A.** The ΔTm at 100 µM was 2.01 °C.

**Q.** What about the ED score [2] of the same molecule?
**A.** Its ED score is 0.3486.

**Q.** And the ΔTm at 100 µM ([2]; read-out: mean Delta Tm)?
**A.** The ΔTm at 100 µM was 2.26 °C.

**Q.** What about the “DNA damage (γ-H2AX staining)” value [3] of the same molecule?
**A.** Its value is “did not do so”.

**Q.** And the GI50 [4]?
**A.** The GI50 was 1.2 µM.

**Q.** And the “misaligned chromosomes / multipolar spindles in tumor sections” value ([5]; HCT-15 tumor sections, Day 12)?
**A.** Its value is “caused massively misaligned chromosomes with multipolar spindles in tumor sections”.

**Q.** And the “antitumor activity (tumor volume)” value ([5]; a131 20 mg/kg, b5 40-80 mg/kg, PO or IP twice daily, 12 days, paclitaxel IV)?
**A.** The value was “marked antitumor efficacies”.

**Q.** What about the body weight loss ([5]; xenograft-bearing mice, PO or IP twice daily) of the same molecule?
**A.** The body weight loss was “without any body weight loss”.

**Q.** What about the “percentage of cells expressing Annexin V versus DMSO” value [6] of the same molecule?
**A.** The value was “significantly higher (p<0.0001)”.

**Q.** And the “percentage of subG1 population versus DMSO” value ([6]; cancer cells)?
**A.** Its value is “significantly higher (p<0.0001)”.

**Q.** What about the GI50 [7] of the same molecule?
**A.** The GI50 was 5.2 µM.

**Q.** What about the “mitotic arrest (time-lapse analysis)” value [8] of the same molecule?
**A.** Its value is “immediately induced mitotic arrest in transformed BJ cells”.

**Q.** And the “centrosome de-clustering and multipolar mitotic spindles” value ([8]; 32 h)?
**A.** Its value is “caused de-clustered centrosomes and multipolar mitotic-spindles in transformed BJ”.

**Q.** And the GI50 [9]?
**A.** Its GI50 is 8.1 µM.
